From patent US20250206761A1, “HALOINDOLE MACROCYCLIC COMPOUNDS FOR THE TREATMENT OF CANCER” (Hoffmann-La Roche Inc., priority 2022, published 2025)
pIC50: −log10 of the molar value.

Tests used:
[1] = system: phosphorylation of ERK, KRAS G12C in NCJ-H358 cells; experiment: pERK inhibition assay, KRAS G12C; format: cell-based, human; conditions: Homo sapiens, 4 hours
Summary of the method: (§1)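 Cells in RPMI-1640 with 10% FBS were plated overnight (NCJ-H358 30,000, AGS 20,000, SW620 30,000 cells/well), then exposed to compounds in 0.5% DMSO for 4 h. Fixed, methanol-permeabilized cells were probed for pERK by HRP-based in-cell ELISA with TMB, OD450; IC50 from 4-parameter sigmoidal fit.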

[2] = system: phosphorylation of ERK, KRAS G12V in SW620; experiment: pERK inhibition assay, KRAS G12V; format: cell-based, human; conditions: Homo sapiens, SW-620, SW620, 4 hours
Summary of the method: as §1

[3] = system: cryopreserved suspension hepatocytes from human; experiment: Human hepatocyte stability assay; format: in vitro ADME; conditions: for Clearance Category: human hepatocytes; for CL_hep (Human): human hepatocytes 1×10^6 cells/mL, 37° C.
Protocol: The hepatocyte stability assay measures the rate of disappearance of a compound from incubations with cryopreserved suspension hepatocytes from human. Positive controls, including Midazolam, Raloxifene and Dextromethorphan, are included in every experiment. Incubations consist of […] tested compound and suspension of human hepatocytes (1×10^6 cells/mL) in supplemented Williams' E Medium with 10% FBS and 0.5% Penicillin-streptomycin. The hepatocyte suspension was incubated with intermittent shaking 900 rpm at 37° C., in a 5% CO2 incubator. The reaction was stopped by adding methanol containing internal standard (2 μM Tolbutamide) at 2, 10, 20, 40, 60 and 120 minutes after compound addition, depletion of the parent compound was monitored by LC-MS/MS analysis.

SW620 (ATCC-CCL-227) = experiment: Cell viability assay, G12V (SW620); format: cell-based, human; conditions: Homo sapiens, SW-620; KRAS cell viability, SW620, 72 hrs, Cell Counting Kit-8
Summary of the method: (§2)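 Cells were seeded at 5,000 cells/well (NCI-H358) or 2,000 cells/well (AGS, SW620), incubated overnight, then treated with compounds in 0.5% DMSO final for 72 hrs. CCK-8 was added and OD450 minus OD650 read after 2 hrs; IC50 came from a 4-parameter sigmoidal fit.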

[4] = system: NCI-H358 (ATCC-CRL5807) cells; experiment: Cell viability assay, G12C (NCI-H358); format: cell-based, human; conditions: Homo sapiens; KRAS cell viability, NCI-H358, 72 hrs, Cell Counting Kit-8
Summary of the method: as §2

[5] = system: AGS (ATCC-CRL-1739) cells; experiment: Cell viability assay, G12D (AGS); format: cell-based, human; conditions: Homo sapiens, KRAS cell viability, 72 hrs, Cell Counting Kit-8
Summary of the method: as §2

[6] = system: phosphorylation of ERK, KRAS G12D in AGS cells; experiment: pERK inhibition assay, KRAS G12D; format: cell-based, human; conditions: Homo sapiens, 4 hours
Summary of the method: as §1

[7] = from CCn1c(-c2cc(N3CCOCC3)cnc2[C@H](C)OC)c(CC(C)(C)CO)c2cc(-c3csc(C[C@H](NC(=O)OC(C)(C)C)C(=O)N4CCC[C@@H](C(=O)O)N4)n3)c(F)cc21; ester bond; EDCI/HOBt/DIEA; DCM; 11.72 mM; 20.0 °C; 12.0 h
KRAS G12C-BRAF complex = KRAS G12C-BRAF complex (Homo sapiens (Human), UniProt P01116+P62937, G12C); experiment: KRAS G12C-BRAF NanoBit assay; format: cell-based; conditions: HEK293 cells, 3 hours of incubation
Protocol: This assay is to measure the ability of tested compounds in disruption of the KRAS G12C-BRAF complex at the cellular level, we established the NanoBit cellular assay in mammalian HEK293 (ATCC) cells.
HEK293 cells were grown and maintained using DMEM medium (Thermo Fisher Scientific) with 10% fetal bovine serum and 1% penicillin/streptomycin. Both KRAS G12C and BRAF RBD were cloned into the NanoBit vectors ([…] vectors system, Promega) with the orientations SnmBit-KRAS G12C and BRAF RBD-LgBit, respectively, and co-transfected into HEK293 cells. Cells were then selected with 100 μg/mL Hygromycin B (10687010, Thermo Fisher) and Blasticidin (5 μg/mL) for 4 weeks to get the stable cell pool.
On the day of the assay, 75 nL of compound solution was presented in a 384-well assay plate as a 16-point 3-fold dilution starting from a final concentration of 30 μM in DMSO. Then cells were seeded at 10,000 cells/25 μL/well in a 384-well plate. After 3 hours of incubation, 6 μL of volume of Nano-Glo® Live Cell Substrate (Promega) was added into each well. Monitor luminescence using ultra384 model in Envision at 20 minutes. Compounds that facilitate disruption of the KRAS G12C-BRAF RBD complex were identified as those eliciting a decrease of luminescence relative to DMSO control wells.

KRAS G12C-BRAF complex, sequence (P01116-2 other isoform, or with tags, fused parts or gaps G12C): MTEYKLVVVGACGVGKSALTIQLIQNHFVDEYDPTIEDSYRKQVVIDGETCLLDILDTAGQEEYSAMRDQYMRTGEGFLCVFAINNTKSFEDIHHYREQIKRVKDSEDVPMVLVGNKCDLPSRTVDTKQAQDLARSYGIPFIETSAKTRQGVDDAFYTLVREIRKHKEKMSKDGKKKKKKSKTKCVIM
KRAS G12C-BRAF complex, sequence (P62937 whole entry): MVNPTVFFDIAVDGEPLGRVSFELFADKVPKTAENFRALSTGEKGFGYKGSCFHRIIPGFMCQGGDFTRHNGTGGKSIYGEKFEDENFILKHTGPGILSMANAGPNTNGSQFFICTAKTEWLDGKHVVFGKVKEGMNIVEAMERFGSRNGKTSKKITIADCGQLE

Structure (SMILES) | pIC50 [1] | pIC50 [2] | Clearance Category [3] | CL_hep (Human) [3] | pIC50 (SW620 (ATCC-CCL-227)) | pIC50 [4] | pIC50 [5] | pIC50 [6] | ring closure, yield of all isomers [7] | pIC50 (KRAS G12C-BRAF complex)
CO[C@@H](C)c1ncc(N2CCN(C)CC2)cc1-c1c2c3cc(c(F)cc3n1CC(F)(F)F)-c1csc(n1)C[C@H](NC(=O)[C@H](C(C)C)N1CCCC3(CCN(C(=O)[C@H](F)Cl)CC3)C1=O)C(=O)N1CCC[C@H](N1)C(=O)OCC(C)(C)C2 (atropisomer, axis not shown; (M)) [Example 6, (2S)-2-[9-[(2R)-2-chloro-2-fluoro-acetyl]-1-oxo-2,9-diazaspiro[5.5]undecan-2-yl]-N-[(7S,13S)-24-fluoro-(20M)-20-[2-[(1S)-1-methoxyethyl]-5-(4-methylpiperazin-1-yl)-3-pyridyl]-17,17-dimethyl-8,14-dioxo-21-(2,2,2-trifluoroethyl)-15-oxa-4-thia-9,21,27,28-tetrazapentacyclo[17.5.2.1^2,5.1^9,13.0^22,26]octacosa-1(25),2,5(28),19,22(26),23-hexaen-7-yl]-3-methyl-butanamide] | 9.00 | 7.62 | medium (16.24>CL_hep (mL/min/kg)>6.96 is medium clearance) | 13.4 mL/min/kg | 7.68 | 9.00 | 7.12 | 7.68 |  | 
CO[C@@H](C)c1ncc(N2CCN(C)CC2)cc1-c1c2c3cc(c(F)cc3n1CC(F)(F)F)-c1csc(n1)C[C@H](NC(=O)[C@H](C(C)C)N1CC[C@]3(CCN(C(=O)[C@H](F)Cl)C3)C1=O)C(=O)N1CCC[C@H](N1)C(=O)OCC(C)(C)C2 (atropisomer, axis not shown; (M)) [Example 5, (2S)-2-[(5S)-7-[(2R)-2-chloro-2-fluoro-acetyl]-1-oxo-2,7-diazaspiro[4.4]nonan-2-yl]-N-[(7S,13S)-24-fluoro-(20M)-20-[2-[(1S)-1-methoxyethyl]-5-(4-methylpiperazin-1-yl)-3-pyridyl]-17,17-dimethyl-8,14-dioxo-21-(2,2,2-trifluoroethyl)-15-oxa-4-thia-9,21,27,28-tetrazapentacyclo[17.5.2.1^2,5.1^9,13.0^22,26]octacosa-1(25),2,5(28),19,22(26),23-hexaen-7-yl]-3-methyl-butanamide] | 8.70 | 7.59 | medium (16.24>CL_hep (mL/min/kg)>6.96 is medium clearance) | 12.5 mL/min/kg | 7.38 | 8.70 | 5.65 | 7.32 |  | 
CCn1c(-c2cc(N3CCOCC3)cnc2[C@H](C)OC)c2c3cc(c(F)cc31)-c1csc(n1)C[C@H](NC(=O)OC(C)(C)C)C(=O)N1CCC[C@H](N1)C(=O)OCC(C)(C)C2 |  |  |  |  |  |  |  |  | 49.1% | 
CO[C@@H](C)c1ncc(N2CCN(C)CC2)cc1-c1c2c3cc(c(F)cc3n1CC(F)(F)F)-c1csc(n1)C[C@H](NC(=O)[C@H](C(C)C)N1CCC3(CCN(C(=O)[C@H](F)Cl)CC3)C1=O)C(=O)N1CCC[C@H](N1)C(=O)OCC(C)(C)C2 (atropisomer, axis not shown; (M)) [Example 15, (2S)-2-[8-[(2R)-2-chloro-2-fluoro-acetyl]-1-oxo-2,8-diazaspiro[4.5]decan-2-yl]-N-[(7S,13S)-24-fluoro-(20M)-20-[2-[(1S)-1-methoxyethyl]-5-(4-methylpiperazin-1-yl)-3-pyridyl]-17,17-dimethyl-8,14-dioxo-21-(2,2,2-trifluoroethyl)-15-oxa-4-thia-9,21,27,28-tetrazapentacyclo[17.5.2.1^2,5.1^9,13.0^22,26]octacosa-1(25),2,5(28),19,22(26),23-hexaen-7-yl]-3-methyl-butanamide] |  |  | medium (16.24>CL_hep (mL/min/kg)>6.96 is medium clearance) | 10.9 mL/min/kg | 6.11 | > 9.00 | 5.49 |  |  | 7.49
